For eight compounds, TGI results are on record in PubChem BioAssay (NCI).

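Growth conditions: 96-well plates. Treatment: test compound, 48 hours, 5 concentrations. Analysis: linear interpolation between bracketing concentrations; unreached endpoints set to highest concentration. TGI: concentration producing complete growth inhibition.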

Test systems include 786-0 renal; A498 renal; A549 NSCLC; COLO 205 colon; EKVX NSCLC; HL-60(TB) leukemia; HOP-62 NSCLC; HOP-92 NSCLC; KM12 colon; NCI-H522 lung; OVCAR-5 ovarian; OVCAR-8 ovarian; RPMI-8226 leukemia; RXF 393 renal; SK-MEL-5 melanoma; SN12C renal; UO-31 renal; PC-3 prostate.
What all share (test): growth of human tumour cells (NCI), 48 h

As to `COc1cc2c(cc1OC)[C@H]1C(COC(=O)c3ccccc3)CSC(=Nc3ccccc3)N1CC2` (some centres not stated), the TGI in the test with 786-0 renal, in the test on A498 renal, in the test on A549 NSCLC, in the test with COLO 205 colon, with EKVX NSCLC and with HL-60(TB) leukemia was above 100 µM in each case. Further, the TGI in the test on HOP-62 NSCLC was above 100 µM; in the test with HOP-92 NSCLC, above 100 µM; with KM12 colon it was above 100 µM; in the test with NCI-H522 lung it was 6.08 µM; in the test on OVCAR-5 ovarian, above 100 µM; in the test with OVCAR-8 ovarian it was above 100 µM. Besides, the TGI in the test on RPMI-8226 leukemia, with RXF 393 renal, in the test with SK-MEL-5 melanoma, in the test on SN12C renal and in the test with UO-31 renal was above 100 µM in each case.
Regarding `CC1OC(OC2C(OC(=O)[C@@H]3CC(C)(C)C[C@@H]4C5=CC[C@@H]6[C@@]7(C)C[C@H](O)[C@H](OC8OC(CO)C(O)C(O)C8O)[C@@](C)(CO)C7[C@H](O)C[C@@]6(C)[C@]5(C)C[C@@H](O)[C@H]43)OCC(O)C2O)C(O)C(O)C1O` (some centres not stated), the TGI in the test with 786-0 renal, in the test on COLO 205 colon, in the test on EKVX NSCLC, in the test on HL-60(TB) leukemia, with HOP-62 NSCLC and in the test with HOP-92 NSCLC was above 15 µM throughout. Moreover, the TGI in the test with KM12 colon, in the test with NCI-H522 lung, with OVCAR-5 ovarian, in the test on OVCAR-8 ovarian, in the test with PC-3 prostate and in the test with RXF 393 renal was above 15 µM each time. Moreover, the TGI in the test with SK-MEL-5 melanoma, in the test on SN12C renal and with UO-31 renal was above 15 µM each time.
`CC(=O)C(CN(Cc1ccccc1)Cc1ccccc1)C(c1ccccc1)c1c(O)c2ccccc2oc1=O` (configuration not stated): the TGI in the test on 786-0 renal, in the test on A498 renal, in the test with A549 NSCLC, with EKVX NSCLC, with HL-60(TB) leukemia and in the test on HOP-62 NSCLC was above 100 µM each time. For the same compound, the TGI in the test on HOP-92 NSCLC, in the test with KM12 colon, with NCI-H522 lung, with OVCAR-5 ovarian, with OVCAR-8 ovarian and in the test on RPMI-8226 leukemia was above 100 µM each time. For the same compound, the TGI in the test with RXF 393 renal, in the test with SK-MEL-5 melanoma, in the test on SN12C renal and with UO-31 renal was above 100 µM throughout.
Take `CN1CCCOC(c2ccc([N+](=O)[O-])cc2)O1` (configuration not stated): the TGI in the test with 786-0 renal, in the test with A498 renal, in the test with A549 NSCLC, in the test on COLO 205 colon, in the test on EKVX NSCLC and in the test on HOP-62 NSCLC was above 100 µM throughout. Besides, the TGI in the test on HOP-92 NSCLC, in the test on KM12 colon, in the test on NCI-H522 lung, in the test on OVCAR-5 ovarian, with OVCAR-8 ovarian and with PC-3 prostate was above 100 µM throughout. In addition, the TGI in the test on RXF 393 renal, with SK-MEL-5 melanoma, with SN12C renal and in the test with UO-31 renal was above 100 µM throughout.
As to `Cc1ccc(C2=C(C#N)C(=O)N3CCN=C3S2)cc1`, the TGI with 786-0 renal, with A549 NSCLC, in the test with COLO 205 colon, with EKVX NSCLC, in the test with HOP-92 NSCLC and in the test on KM12 colon was above 100 µM throughout. The TGI in the test with NCI-H522 lung, in the test on OVCAR-5 ovarian, with OVCAR-8 ovarian, with PC-3 prostate, in the test with RXF 393 renal and with SK-MEL-5 melanoma was above 100 µM in each case. In addition, the TGI in the test with SN12C renal and with UO-31 renal was above 100 µM in each case.
Regarding `COc1cc([C@H]2CC(=O)C[C@H](c3cc(OC)c(OC)c(OC)c3)C23C(=O)c2ccccc2C3=O)cc(OC)c1OC`, the TGI in the test with 786-0 renal, in the test on A549 NSCLC, in the test with COLO 205 colon, in the test on EKVX NSCLC, in the test on HOP-62 NSCLC and with HOP-92 NSCLC was above 100 µM in each case. Further, the TGI in the test on KM12 colon is above 100 µM; in the test on NCI-H522 lung, 95.1 µM; in the test with OVCAR-5 ovarian, above 100 µM; in the test with OVCAR-8 ovarian, above 100 µM; in the test on PC-3 prostate it was above 100 µM; in the test on RPMI-8226 leukemia, above 100 µM. The TGI in the test on RXF 393 renal is 88.7 µM; with SK-MEL-5 melanoma it was above 100 µM; in the test on SN12C renal, above 100 µM; in the test on UO-31 renal, above 100 µM.
Turning to `Cc1c2c(Cl)c3c(c(Cl)c2c(C)c2c(Cl)c4c(c(Cl)c12)C(c1ccccc1)(c1ccccc1)C4(c1ccccc1)c1ccccc1)C(c1ccccc1)(c1ccccc1)C3(c1ccccc1)c1ccccc1`, the TGI in the test on 786-0 renal, in the test with A498 renal, in the test with A549 NSCLC, in the test with COLO 205 colon, in the test with EKVX NSCLC and in the test with HOP-62 NSCLC was above 100 µM throughout. Also, the TGI in the test on HOP-92 NSCLC, with KM12 colon, in the test with NCI-H522 lung, in the test on OVCAR-5 ovarian, with OVCAR-8 ovarian and in the test with PC-3 prostate was above 100 µM each time. The TGI in the test with RXF 393 renal, in the test with SK-MEL-5 melanoma, in the test on SN12C renal and in the test on UO-31 renal was above 100 µM throughout.
In the case of `COc1cc(/C=C2\C(=O)N(c3ccccc3Cl)C(c3ccccc3)S2(=O)=O)cc(OC)c1OC` (configuration not stated), the TGI in the test with 786-0 renal, with A498 renal, in the test with A549 NSCLC, with COLO 205 colon, with EKVX NSCLC and in the test on HL-60(TB) leukemia was above 100 µM in each case. Moreover, the TGI in the test on HOP-62 NSCLC is above 100 µM; in the test on HOP-92 NSCLC it was above 100 µM; in the test on KM12 colon it was 83.5 µM; in the test on NCI-H522 lung, 46.5 µM; in the test with OVCAR-5 ovarian it was above 100 µM; in the test on OVCAR-8 ovarian it was above 100 µM. For the same compound, the TGI in the test on RPMI-8226 leukemia was 42.9 µM; in the test with RXF 393 renal it was 76.7 µM; with SK-MEL-5 melanoma, 45.5 µM; with SN12C renal, 60.6 µM; in the test with UO-31 renal, above 100 µM.
